Reference: ChEMBL document CHEMBL4321858 (J Med Chem, 2019)
≈ marks a conversion by molar mass, not a printed value.

How the values were obtained:
[1] = Thermodynamic solubility of compound at pH 6.5; assay type: physicochemical; conditions: buffer; for solubility thermodynamic: read-out: Therm_solubility
[2] = Lipophilicity, logD of compound at pH 7.5 by RP-HPLC analysis; assay type: physicochemical; conditions: buffer
[3] = Oral bioavailability in Wistar rat at 2 mg/kg; assay type: ADME, organism-based; conditions: in vivo
[4] = Volume of distribution at steady state in Wistar rat at 0.5 mg/kg, iv; assay type: ADME, organism-based; conditions: in vivo, read-out: Vdss
[5] = AUC in Wistar rat at 0.5 mg/kg, iv; assay type: ADME, organism-based; conditions: in vivo
[6] = Apparent permeability across apical to basolateral side in human Caco2 cells at 2 uM after 2 hrs by LC/MS-MS analysis; assay type: ADME, cell-based; conditions: Caco-2
[7] = Volume of distribution at steady state in Wistar rat at 1 mg/kg, iv; assay type: ADME, organism-based; conditions: in vivo, read-out: Vdss
[8] = AUC in Wistar rat at 1 mg/kg, iv; assay type: ADME, organism-based; conditions: in vivo
[9] = Unbound drug level in plasma of CFA induced C57BL/6N mouse at […], po after 1 hr; assay type: ADME, organism-based; conditions: in vivo
[10] = Unbound drug level in plasma of CFA induced C57BL/6N mouse at 25 mg/kg, po after 1 hr; assay type: ADME, organism-based; conditions: in vivo
[11] = Unbound drug level in plasma of CFA induced C57BL/6N mouse at 50 mg/kg, po after 1 hr; assay type: ADME, organism-based; conditions: in vivo
[12] = Unbound drug level in plasma of CFA induced C57BL/6N mouse at 50 mg/kg, po after 80 mins; assay type: ADME, organism-based; conditions: in vivo

Row | Structure (SMILES) | solubility thermodynamic [1] [µg/mL] | logD [2] | bioavailability [3] [%] | Papp A→B at 2 h, 2 µM [6] [×10⁻⁶ cm/s] | further results
1 | NS(=O)(=O)c1cc(NC(=O)Cc2ccccc2Cl)ccc1Oc1cccc(Cl)c1 | 7 (≈ 15.5 µM) | 3 |  |  | 
2 | NS(=O)(=O)c1cc(NC(=O)Cc2cc(F)ccc2Cl)ccc1OCC1CCOCC1 | 24 (≈ 52.5 µM) | 2.2 | 44 | 4.3 | Vd [4]: 0.82 L/kg; AUC [5]: 1.11 kg·h/L
3 | NS(=O)(=O)c1cc(NC(=O)Cc2c(F)cccc2Cl)ccc1Oc1cccc(Cl)c1 | 0.7 (≈ 1.49 µM) |  |  |  | 
4 | NS(=O)(=O)c1cc(NC(=O)Cc2ccccc2Cl)ccc1OCc1ccccc1 |  |  |  |  | Therm_solubility [1]: Insoluble
5 | NS(=O)(=O)c1cc(NC(=O)Cc2ccccc2C(F)(F)F)ccc1Oc1cccc(Cl)c1 |  | 3.3 |  |  | 
6 | NS(=O)(=O)c1cc(NC(=O)Cc2ccccc2)ccc1Oc1cccc(Cl)c1 [BAY-1797] | 16 (≈ 38.4 µM) | 2.8 | 43 | 13.2 | Vd [7]: 2.77 L/kg; AUC [8]: 1.06 kg·h/L; Cp(f) [9]: 186 nM; Cp(f) [10]: 374 nM; Cp(f) [11]: 672 nM; Cp(f) [12]: 548 nM
7 | NS(=O)(=O)c1cc(NC(=O)Cc2ccccc2Cl)ccc1Oc1ccc(-c2nccs2)cc1 | 1 (≈ 2 µM) |  |  |  | 
8 | NS(=O)(=O)c1cc(NC(=O)Cc2ccccc2Cl)ccc1OCC1CCOCC1 | 21 (≈ 47.8 µM) | 2.2 | 21 | 5.3 | Vd [4]: 1.23 L/kg; AUC [5]: 0.37 kg·h/L
